Entries after “also recorded” stand apart in the source; their conditions may differ.
Tests used:
human TMEM97 = target: T1, human TMEM97 (Homo sapiens, UniProt Q5BJF2); experiment: ^3H DTG competition binding in Sf9 insect membranes overexpressing TMEM97; conditions: competition with 30 nM ^3H DTG
T1 construct: made in house; host or cells: Sf9 insect cells (baculovirus, pVL1392, BestBac)
Procedure: For insect cell expression, human TMEM97 was cloned into the vector pVL1392, and baculovirus was prepared using the BestBac system (Expression Systems) in accordance with manufacturer's instructions. For large scale production, Sf9 insect cells were infected at a density of 4×10^6 cells/mL and then shaken at 27° C. for 60 hours prior to harvest.
(§1) Membranes were prepared from PC-12, MCF-7, Sf9, or Expi293 cells. In brief, adherent cells were washed with ice cold PBS or HBS and harvested with a cell scraper, while suspension cells were simply pelleted. Cell pellets were suspended in 20 mM HEPES pH 7.5, 2 mM magnesium chloride, and 1:100,000 (v:v) benzonase nuclease (Sigma Aldrich) and supplemented with cOmplete Mini, EDTA-free Protease Inhibitor Cocktail Tablets (Roche). Following dounce homogenization, the cells were centrifuged at 50,000×g for 20 minutes. The supernatant was discarded and the membranes were washed one more time with cold 50 mM Tris pH 8.0 containing cOmplete Mini, EDTA-free Protease Inhibitor Cocktail Tablets (Roche, 1 tablet per 50 mL buffer). The membranes were centrifuged once more at 50,000× for 20 minutes, and then resuspended in a variable volume of cold 50 mM Tris pH 8.0 with the same protease inhibitor cocktail. Protein content was assessed by DC protein assay (Bio-Rad) according to manufacturer's instructions. Membranes were aliquoted, flash frozen, and stored at −80° C. until use in the radioligand binding experiments described below.
1.8 μM (+)SKF-10,047 was included to block 1l receptor sites in all MCF-7 membranes binding assays and in Sf9 membranes when testing TMEM97 ligands. Reactions were incubated for 90 minutes at 37° C., and were then terminated by filtration through a glass fiber filter using a Brandel cell harvester. Glass fiber filters were soaked in 0.3% polyethylenimine for at least 30 minutes at room temperature prior to harvesting. All reactions were performed in triplicate using a 96-well block. After the membranes were transferred to the filters and washed, the filters were soaked in 5 mL Cytoscint scintillation fluid overnight and radioactivity was measured using a Beckman Coulter LS 6500 scintillation counter. Data were analyzed using software from Graphpad Prism. Ki values were computed directly without the use of the Cheng-Prusoff correction using the Graphpad Prism software.

PGRMC1 = target: T2, PGRMC1 (Homo sapiens, UniProt O00264); experiment: single-point ^3H DTG binding, HEK293 cells overexpressing PGRMC1; conditions: 10 nM ^3H DTG
T2 construct: mCardinal (behind the 2A skip peptide, reporter of transfection) (C, cleaved yes); expressed in transfected cells
T2 sequence (O00264 whole entry, species assumed): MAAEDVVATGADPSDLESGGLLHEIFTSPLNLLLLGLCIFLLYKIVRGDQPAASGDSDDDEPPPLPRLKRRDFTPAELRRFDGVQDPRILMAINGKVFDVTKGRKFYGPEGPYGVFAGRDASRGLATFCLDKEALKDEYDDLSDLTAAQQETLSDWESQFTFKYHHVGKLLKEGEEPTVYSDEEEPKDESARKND
Procedure: Eight selected hits from LC-MS/MS were cloned into a pTARGET vector (Promega), followed by a porcine teschovirus-1 2A skip peptide ([…] (SEQ ID NO: 3)) and by the fluorescent protein mCardinal40 to assess transfection efficiency. Plasmids were transfected into Expi293 cells (Thermo Fisher) according to manufacturer's instructions. After 36 hours, expression of each target protein was confirmed by flow cytometry analysis of mCardinal fluorescence levels. Receptor point mutants were generated by site-directed mutagenesis using KAPA polymerase (KAPA Biosystems), and resulting constructs were expressed in Expi293 cells as described above.
Membranes were prepared from PC-12, MCF-7, Sf9, or Expi293 cells. In brief, adherent cells were washed with ice cold PBS or HBS and harvested with a cell scraper, while suspension cells were simply pelleted. Cell pellets were suspended in 20 mM HEPES pH 7.5, 2 mM magnesium chloride, and 1:100,000 (v:v) benzonase nuclease (Sigma Aldrich) and supplemented with cOmplete Mini, EDTA-free Protease Inhibitor Cocktail Tablets (Roche). […] Protein content was assessed by DC protein assay (Bio-Rad) according to manufacturer's instructions. […]
Membrane radioligand binding assays were performed as described 41 with slight modifications. […] Radioactivity was measured by liquid scintillation counting.

Tmem97 mRNA = experiment: siRNA knockdown of Tmem97 in PC-12 cells, qPCR of mRNA; type: cell-based, Rattus norvegicus; conditions: 10 nM siRNA
Procedure: A pair of siRNA oligos were designed against Rattus norvegicus Tmem97 mRNA using the Stealth RNAi™ tool available through ThermoFisher Scientific. The sense strand for the siRNA was 5′-[…]-3′ (SEQ ID NO: 4), and the antisense strand was 5′-[…]-3′ (SEQ ID NO: 5). As a control, we used the AllStars Negative Control siRNA™ from Qiagen. For the transfection, 2.2×10^6 PC-12 cells suspended in 8.0 mL of DMEM with 10% FBS and 10 μg/mL of gentamicin were placed in a 10 cm dish and immediately transfected with a 2.0 mL solution containing 20 μL of Lipofectamine® RNAimax from ThermoFisher Scientific and 10 nM of either the control or Tmem97 siRNA. After 24 hours, the media was changed for fresh media, and the cells were transfected again in the same way. 48 hours after the first transfection, the cells were trypsinized and split 1:2 into two new 10 cm plates. On the 5th day after the first transfection, cells were harvested by trypsinization and centrifugation, and 10% were set aside for RNA extraction while 90% were used for binding analysis. […]
After preparation of the cDNA was complete, real-time quantitative PCR (qPCR) was performed on a QuantStudio 6 qPCR instrument at the Harvard Medical School Center for Molecular Interactions using PowerUp™ SYBR® Green Master Mix from Applied Biosystems Life Technologies. […] Fold differences in Tmem97 expression levels were calculated using the ΔΔCT method 43. […]

sigma-2 receptor [1] = target: T3, sigma-2 receptor (Rattus norvegicus, UniProt Q5U3Y7); experiment: siRNA knockdown of Tmem97 in PC-12 cells, sigma-2 expression by saturating ^3H DTG binding; type: cell-based; conditions: compared with mRNA reduction
T3 construct: endogenous in cells; host or cells: PC-12 cells
T3 sequence (Q5U3Y7 1-176): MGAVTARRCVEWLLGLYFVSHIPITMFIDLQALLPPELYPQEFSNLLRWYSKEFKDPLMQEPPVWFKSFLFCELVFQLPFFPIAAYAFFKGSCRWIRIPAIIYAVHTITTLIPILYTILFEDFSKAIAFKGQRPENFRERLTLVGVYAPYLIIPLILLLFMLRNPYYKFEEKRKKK
Procedure: as §1, with “Cell pellets were suspended in 20 mM HEPES pH 7.5, 2 mM magnesium chloride, and 1:100,000 (v:v) benzonase nuclease (Sigma Aldrich) and supplemented with cOmplete Mini, EDTA-free Protease Inhibitor Cocktail Tablets (Roche).” left out, “-80°” for “−80°”, “below. Membrane radioligand binding assays were performed as described 41 with slight modifications. […] Samples were incubated at room temperature with shaking for 1.5 hours, at which time the reaction was terminated by the addition of ice-cold water. Samples were then applied to glass fiber filters (Merck Millipore) that had been pre-treated with 0.3% (v/v) polyethylenimine. […] Radioactivity was measured by liquid scintillation counting. […]” for “below.”

sigma-2 receptor [2] = target: sigma-2 receptor (Homo sapiens, UniProt Q5BJF2); experiment: ^3H DTG competition binding in MCF-7 cell membranes; conditions: competition with 30 nM ^3H DTG
Sequence of sigma-2 receptor (Homo sapiens, UniProt Q5BJF2) (Q5BJF2 whole entry, species assumed): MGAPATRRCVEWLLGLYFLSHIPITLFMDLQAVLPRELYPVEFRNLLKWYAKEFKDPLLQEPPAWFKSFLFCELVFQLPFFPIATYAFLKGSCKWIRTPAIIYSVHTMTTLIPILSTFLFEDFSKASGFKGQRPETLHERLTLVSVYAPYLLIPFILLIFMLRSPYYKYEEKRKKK
Procedure: as §1, with “The membranes were centrifuged once more at 50,000× for 20 minutes, and then resuspended in a variable volume of cold 50 mM Tris pH 8.0 with the same protease inhibitor cocktail.” left out, “Membranes were aliquoted, flash frozen, and stored at −80° C. until use in the radioligand binding experiments described below.” left out
1.8 μM (+)SKF-10,047 was included to block 1l receptor sites in all MCF-7 membranes binding assays and in Sf9 membranes when testing TMEM97 ligands. […] After the membranes were transferred to the filters and washed, the filters were soaked in 5 mL Cytoscint scintillation fluid overnight and radioactivity was measured using a Beckman Coulter LS 6500 scintillation counter. Data were analyzed using software from Graphpad Prism. […]

T1 sequence (Q5BJF2 whole entry): as the sequence (Q5BJF2 whole entry, species assumed) above

Compound | affinity of the ligand for TMEM97 compared with previously reported affinities (human TMEM97) | further results
COc1cccc2c1CCCC2CCCN1CCN(C2CCCCC2)CC1 (centres unmarked) [PB-28] | essentially identical to previously report sigma-2 receptor binding affinities; also recorded: essentially identical to previously reported affinities | 
Cc1ccccc1NC(=N)Nc1ccccc1C [^3H DTG, ^3H 1,3-di-o-tolylguanidine] |  | ^3H DTG binding (PGRMC1): did not lead to increased
siRNA: siRNA against Rattus norvegicus Tmem97 mRNA; sense strand 5′-CAACCUGUUGCGGUGGUACUCUAAG-3′ (SEQ ID NO: 4) (antisense CUUAGAGUACCACCGCAACAGGUUG; chemistry not given here) |  | reduction of Tmem97 mRNA expression (Tmem97 mRNA): ~60%; reduction in sigma-2 expression levels by saturating ^3H DTG binding (sigma-2 receptor [1]): near identical reduction
(+)-SKF-10,047 | essentially identical to previously report sigma-2 receptor binding affinities; also recorded: essentially identical to previously reported affinities | 
CC(C)=CCN1CCC2(C)c3cc(O)ccc3CC1C2C (single isomer, unassigned; (+)) [(+)-pentazocine] | essentially identical to previously report sigma-2 receptor binding affinities; also recorded: essentially identical to previously reported affinities | 
O=C(CCCN1CCC(O)(c2ccc(Cl)cc2)CC1)c1ccc(F)cc1 [haloperidol] | essentially identical to previously report sigma-2 receptor binding affinities; also recorded: essentially identical to previously reported affinities | 
COc1cc2c(cc1OC)CN(CCc1ccc(NC(=O)c3cccc4c(=O)c5cccc(OC)c5[nH]c34)cc1)CC2 [Elacridar] | essentially identical to previously reported affinities | binding affinity in MCF-7 cell membranes compared with Sf9 membranes overexpressing TMEM97 (sigma-2 receptor [2]): identical in both
C=CCN(C)CCCCCCOc1ccc(C(=O)c2ccc(Br)cc2)c(F)c1 [Ro 48-8071, (4-Bromophenyl)-[2-fluoro-4-[6-[methyl(prop-2-enyl)amino]hexoxy]phenyl]methanone] | essentially identical to previously reported affinities | binding affinity in MCF-7 cell membranes compared with Sf9 membranes overexpressing TMEM97 (sigma-2 receptor [2]): identical in both

— patent US20200000822A1, “METHODS OF TREATMENT FOR CANCER, STEROL HOMEOSTASIS, AND NEUROLOGICAL DISEASES” (BOARD OF REGENTS, THE UNIVERSITY OF TEXAS SYSTEM, priority 2017, published 2020)
